From ChEMBL document CHEMBL1201862, “PubChem BioAssay data set” (2004)
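Five compound concentrations were applied to cells in 96-well plates for 48 hours; endpoints were derived by simple linear interpolation of the resulting dose-response curve. GI50 = concentration required for 50% inhibition of growth.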 Activity calls are given as the source filed them. Rule as the data show it: active = GI50 up to about 1.1 µM and inactive = higher.

How the values were obtained:
Test in all cases: NCI tumour cell line growth inhibition, 48 h
786-0 = system: 786-0
A498 = system: A498
A549 = system: A549
ACHN = system: ACHN
CAKI-1 = system: CAKI-1
CCRF-CEM = system: CCRF-CEM
DLD-1 = system: DLD-1
DMS-114 = system: DMS-114
DMS-273 = system: DMS-273
EKVX = system: EKVX
HCC 2998 = system: HCC 2998
HCT-116 = system: HCT-116
HCT-15 = system: HCT-15
HL-60 = system: HL-60
HOP-92 = system: HOP-92
HT-29 = system: HT-29
IGROV-1 = system: IGROV-1
K562 = system: K562
KM-20L2 = system: KM-20L2
LOX IMVI = system: LOX IMVI
LXFL 529 = system: LXFL 529
M14 = system: M14
M19-MEL = system: M19-MEL
MOLT-4 = system: MOLT-4
Malme-3M = system: Malme-3M
NCI-H226 = system: NCI-H226
NCI-H23 = system: NCI-H23
NCI-H460 = system: NCI-H460
OVCAR-3 = system: OVCAR-3
OVCAR-4 = system: OVCAR-4
OVCAR-5 = system: OVCAR-5
OVCAR-8 = system: OVCAR-8
RPMI-8226 = system: RPMI-8226
RXF 393 = system: RXF 393
RXF 631 = system: RXF 631
SF-268 = system: SF-268
SF-295 = system: SF-295
SF-539 = system: SF-539
SK-MEL-28 = system: SK-MEL-28
SK-MEL-2 = system: SK-MEL-2
SK-MEL-5 = system: SK-MEL-5
SN12C = system: SN12C
SNB-19 = system: SNB-19
SNB-75 = system: SNB-75
SNB-78 = system: SNB-78
SR = system: SR
SW-620 = system: SW-620
TK-10 = system: TK-10
U-251 = system: U-251
UACC-257 = system: UACC-257
UACC-62 = system: UACC-62
UO-31 = system: UO-31
HOP-62 = system: HOP-62
KM12 = system: KM12
NCI-H522 = system: NCI-H522
SK-OV-3 = system: SK-OV-3
BT-549 = system: BT-549
COLO 205 = system: COLO 205
DU-145 = system: DU-145
HOP-18 = system: HOP-18
Hs-578T = system: Hs-578T
MCF7 = system: MCF7
MDA-MB-231 = system: MDA-MB-231
MDA-MB-435 = system: MDA-MB-435
MDA-N = system: MDA-N
PC-3 = system: PC-3
T47D = system: T47D
XF498 = system: XF498

Structure (SMILES): CCc1cccc(C(C)CC)c1NC(=O)CC1C(=O)Nc2ccccc2[S+]1[O-] (centres undefined)
- GI50 (786-0): 37.4 µM (inactive)
- GI50 (A498): 37.2 µM (inactive)
- GI50 (A549): 31.8 µM (inactive)
- GI50 (ACHN): 44.2 µM (inactive)
- GI50 (CAKI-1): 26.4 µM (inactive)
- GI50 (CCRF-CEM): 24.8 µM (inactive)
- GI50 (DLD-1): 32.8 µM (inactive)
- GI50 (DMS-114): 28.2 µM (inactive)
- GI50 (DMS-273): 34 µM (inactive)
- GI50 (EKVX): > 100 µM (inactive)
- GI50 (HCC 2998): > 100 µM (inactive)
- GI50 (HCT-116): 31.3 µM (inactive)
- GI50 (HCT-15): 31 µM
- GI50 (HL-60): 49.4 µM (inactive)
- GI50 (HOP-92): 16.7 µM (inactive)
- GI50 (HT-29): 23.1 µM (inactive)
- GI50 (IGROV-1): 19.9 µM (inactive)
- GI50 (K562): 42.3 µM (inactive)
- GI50 (KM-20L2): 61.2 µM (inactive)
- GI50 (LOX IMVI): 28.2 µM (inactive)
- GI50 (LXFL 529): 31.4 µM (inactive)
- GI50 (M14): 22 µM (inactive)
- GI50 (M19-MEL): 32.8 µM (inactive)
- GI50 (MOLT-4): 14.9 µM (inactive)
- GI50 (Malme-3M): 37.2 µM (inactive)
- GI50 (NCI-H226): > 100 µM (inactive)
- GI50 (NCI-H23): 58.2 µM (inactive)
- GI50 (NCI-H460): 29.4 µM (inactive)
- GI50 (OVCAR-3): 50.7 µM (inactive)
- GI50 (OVCAR-4): 18.3 µM (inactive)
- GI50 (OVCAR-5): 33.1 µM (inactive)
- GI50 (OVCAR-8): 95.7 µM (inactive)
- GI50 (RPMI-8226): 31.3 µM (inactive)
- GI50 (RXF 393): 13.9 µM (inactive)
- GI50 (RXF 631): 36.1 µM (inactive)
- GI50 (SF-268): 40.9 µM (inactive)
- GI50 (SF-295): > 100 µM (inactive)
- GI50 (SF-539): 23 µM (inactive)
- GI50 (SK-MEL-28): 26.1 µM (inactive)
- GI50 (SK-MEL-2): 40.5 µM (inactive)
- GI50 (SK-MEL-5): 27.2 µM (inactive)
- GI50 (SN12C): 91.2 µM (inactive)
- GI50 (SNB-19): 28.5 µM (inactive)
- GI50 (SNB-75): 22.4 µM (inactive)
- GI50 (SNB-78): 28.8 µM (inactive)
- GI50 (SR): 30 µM (inactive)
- GI50 (SW-620): 39.5 µM (inactive)
- GI50 (TK-10): > 100 µM (inactive)
- GI50 (U-251): 14.9 µM (inactive)
- GI50 (UACC-257): > 100 µM (inactive)
- GI50 (UACC-62): 10 µM (inactive)
- GI50 (UO-31): > 100 µM (inactive)

Structure (SMILES): COc1ccc(C(=O)O)c2c(=O)c3cccnc3[nH]c12
- GI50 (A498): > 100 µM (inactive)
- GI50 (A549): > 100 µM (inactive)
- GI50 (ACHN): > 100 µM (inactive)
- GI50 (CCRF-CEM): > 100 µM (inactive)
- GI50 (DMS-114): > 100 µM (inactive)
- GI50 (EKVX): > 100 µM (inactive)
- GI50 (HCT-116): > 100 µM (inactive)
- GI50 (HL-60): > 100 µM (inactive)
- GI50 (HOP-62): > 100 µM (inactive)
- GI50 (HOP-92): > 100 µM (inactive)
- GI50 (HT-29): > 100 µM (inactive)
- GI50 (IGROV-1): > 100 µM (inactive)
- GI50 (KM-20L2): > 100 µM (inactive)
- GI50 (KM12): > 100 µM (inactive)
- GI50 (M14): > 100 µM (inactive)
- GI50 (M19-MEL): > 100 µM (inactive)
- GI50 (MOLT-4): > 100 µM (inactive)
- GI50 (NCI-H23): > 100 µM (inactive)
- GI50 (NCI-H460): > 100 µM (inactive)
- GI50 (NCI-H522): > 100 µM (inactive)
- GI50 (OVCAR-5): > 100 µM (inactive)
- GI50 (OVCAR-8): > 100 µM (inactive)
- GI50 (RXF 393): > 100 µM (inactive)
- GI50 (RXF 631): > 100 µM (inactive)
- GI50 (SF-295): > 100 µM (inactive)
- GI50 (SK-MEL-28): > 100 µM (inactive)
- GI50 (SK-OV-3): > 100 µM (inactive)
- GI50 (SNB-19): > 100 µM (inactive)
- GI50 (SNB-78): > 100 µM (inactive)
- GI50 (SR): > 100 µM (inactive)
- GI50 (TK-10): > 100 µM (inactive)
- GI50 (U-251): > 100 µM (inactive)
- GI50 (UACC-257): > 100 µM (inactive)
- GI50 (UACC-62): 46.1 µM (inactive)
- GI50 (UO-31): > 100 µM (inactive)

Structure (SMILES): NCc1ccc(O)c(O)c1O
- GI50 (786-0): 15.9 µM (inactive)
- GI50 (A498): 75.3 µM (inactive)
- GI50 (A549): 27.6 µM (inactive)
- GI50 (ACHN): 23.4 µM (inactive)
- GI50 (BT-549): 18.4 µM (inactive)
- GI50 (CAKI-1): 29.3 µM (inactive)
- GI50 (CCRF-CEM): 10.9 µM (inactive)
- GI50 (COLO 205): 19.2 µM (inactive)
- GI50 (DLD-1): 20.3 µM (inactive)
- GI50 (DMS-114): 18.8 µM (inactive)
- GI50 (DMS-273): 16.9 µM (inactive)
- GI50 (DU-145): 62.5 µM (inactive)
- GI50 (EKVX): 39.7 µM (inactive)
- GI50 (HCC 2998): > 66.4 µM (inactive)
- GI50 (HCT-116): 16.7 µM (inactive)
- GI50 (HCT-15): 24.7 µM
- GI50 (HL-60): 30.3 µM (inactive)
- GI50 (HOP-18): > 56.8 µM (inactive)
- GI50 (HOP-62): 46.6 µM (inactive)
- GI50 (HOP-92): > 58.6 µM (inactive)
- GI50 (HT-29): 16.9 µM (inactive)
- GI50 (Hs-578T): 10.7 µM (inactive)
- GI50 (IGROV-1): 38.9 µM (inactive)
- GI50 (K562): 23.6 µM (inactive)
- GI50 (KM-20L2): 30.2 µM (inactive)
- GI50 (KM12): 24.3 µM (inactive)
- GI50 (LOX IMVI): 16.8 µM (inactive)
- GI50 (LXFL 529): 16.8 µM (inactive)
- GI50 (M14): 14.3 µM (inactive)
- GI50 (M19-MEL): 12.8 µM (inactive)
- GI50 (MCF7): 16.8 µM (inactive)
- GI50 (MDA-MB-231): 19.7 µM (inactive)
- GI50 (MDA-MB-435): 18 µM (inactive)
- GI50 (MDA-N): > 10 µM (inactive)
- GI50 (MOLT-4): 28.4 µM (inactive)
- GI50 (Malme-3M): 71.1 µM (inactive)
- GI50 (NCI-H226): > 46.8 µM (inactive)
- GI50 (NCI-H23): 28.1 µM (inactive)
- GI50 (NCI-H460): 18.5 µM (inactive)
- GI50 (NCI-H522): > 59 µM (inactive)
- GI50 (OVCAR-3): 22.1 µM (inactive)
- GI50 (OVCAR-4): 26.1 µM (inactive)
- GI50 (OVCAR-5): 17.3 µM (inactive)
- GI50 (OVCAR-8): 23.9 µM (inactive)
- GI50 (PC-3): 33 µM (inactive)
- GI50 (RPMI-8226): 26.9 µM (inactive)
- GI50 (RXF 393): 40.7 µM (inactive)
- GI50 (SF-268): 28.3 µM (inactive)
- GI50 (SF-295): 25.7 µM (inactive)
- GI50 (SF-539): 27.1 µM (inactive)
- GI50 (SK-MEL-28): 62.5 µM (inactive)
- GI50 (SK-MEL-2): 22.5 µM (inactive)
- GI50 (SK-MEL-5): 21.7 µM (inactive)
- GI50 (SK-OV-3): > 78 µM (inactive)
- GI50 (SN12C): 20 µM (inactive)
- GI50 (SNB-19): 54.5 µM (inactive)
- GI50 (SNB-75): 26.4 µM (inactive)
- GI50 (SNB-78): > 65.9 µM (inactive)
- GI50 (SR): 30.1 µM (inactive)
- GI50 (SW-620): 20 µM (inactive)
- GI50 (T47D): 26.2 µM (inactive)
- GI50 (TK-10): > 100 µM (inactive)
- GI50 (U-251): 24.9 µM (inactive)
- GI50 (UACC-257): 30.8 µM (inactive)
- GI50 (UACC-62): 27.1 µM (inactive)
- GI50 (UO-31): 59.7 µM (inactive)
- GI50 (XF498): 26.9 µM (inactive)
